Test results from patent US20250049786A1, “DOPAMINE D3/D2 RECEPTOR MODULATING COMPOUNDS” (Richter Gedeon Nyrt., priority 2023, published 2025).

Key:
[1] = Thermodynamic solubility study (37° C., 4 hours); type: physicochemical; conditions: PBS pH = 7.4, 4 hours
Description: The resulted mixtures/oversaturated solutions are shaken at 37° C. for 4 hrs (to the solution equilibrium) and are filtrated on a Millipore MultiSreen Filter Plate (0.45 μm). Concentrations of the filtrates are determined by LC/UV/MS based on a 5-point calibration. (When the solid material dissolved totally in the aqueous test medium the result should be considered as a minimal value.) Results are shown in Table 2.

[2] = Thermodynamic solubility study (RT, 24 hours); type: physicochemical; conditions: PBS pH = 7.4, 24 hours
Description: The resulted mixtures were shaken at room temperature (RT) for 24 hrs (to the solution equilibrium) and were filtrated on a Millipore MultiSreen Filter Plate (0.45 μ). Concentrations of the filtrates were determined by LC/UV/MS based on a 5-point calibration. (When the solid material dissolved totally in the aqueous test medium the result should be considered as a minimal value.) Results are shown in Table 2.

human 5-HT2A receptor = human 5-HT2A receptor (Homo sapiens (Human), UniProt P28223); assay: Competitive binding assay at human 5-HT2A receptors ([3H]ketanserin); conditions: CHO-K1 membranes, 1 nM [3H]ketanserin
Chain of human 5-HT2A receptor (P28223 whole entry): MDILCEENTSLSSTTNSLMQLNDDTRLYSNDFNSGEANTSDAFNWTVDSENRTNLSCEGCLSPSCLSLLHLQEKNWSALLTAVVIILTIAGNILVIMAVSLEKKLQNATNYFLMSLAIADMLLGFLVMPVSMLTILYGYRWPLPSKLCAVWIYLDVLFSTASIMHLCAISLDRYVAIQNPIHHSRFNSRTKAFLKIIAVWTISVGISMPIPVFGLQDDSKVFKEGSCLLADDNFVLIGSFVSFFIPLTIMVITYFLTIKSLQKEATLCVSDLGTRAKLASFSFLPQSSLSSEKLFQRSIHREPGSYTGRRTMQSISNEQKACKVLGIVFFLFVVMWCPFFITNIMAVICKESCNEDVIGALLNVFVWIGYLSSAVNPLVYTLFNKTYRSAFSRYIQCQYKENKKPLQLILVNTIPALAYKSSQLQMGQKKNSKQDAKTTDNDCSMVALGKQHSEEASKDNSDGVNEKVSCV
Description: Radioactivity was determined with a MicroBeta^2® microplate counter (PerkinElmer).

[3] = test system: Phencyclidine-induced hypermotility in rats; assay: Phencyclidine-induced hypermotility in rats; type: in vivo, rat; conditions: minimum effective dose, time spent with ambulation over one hour
Description: Spontaneous locomotor activity was measured using a six-channel activity monitor manufactured by Experimetria Ltd. (Budapest, HU). […] Additional arrays of photocells (30 pairs) were placed along opposite sides of the cage at different heights (6.5 cm, 12 cm, 18 cm and 23 cm) in order to detect rearing responses.
Test compounds were administered to study animals either orally or subcutaneously, with ten animals per treatment group. In these studies, male Harlan-Wistar rats (Toxi-Coop, Budapest, HU) weighing 190-210 grams were used. After oral administration of test compound or vehicle, animals were individually habituated to the activity monitors for 30 minutes. In the cases of subcutaneous administration of test compounds, rats were first habituated for 15 minutes to the activity monitors, then treated with the test compound or vehicle followed by replacing them into the activity monitors for an additional 15-minute period of habituation. […]
Data were analyzed using GraphPad® Prism® 9 software (GraphPad, San Diego, CA, USA). […] Drug effect was evaluated using Analysis of Variance (ANOVA, or Welch's ANOVA when appropriate) followed by Dunnett's multiple comparisons test. When appropriate, the ED50 value was determined from percent inhibition data from linear regression analysis.

human D2L receptors [4] = target: T1, human D2L receptors (Homo sapiens (Human), UniProt P14416); assay: Competitive binding assay at human D2L receptors using [3H]raclopride; conditions: CHO-K1 membranes, 2 nM [3H]raclopride
T1 sequence (P14416 whole entry): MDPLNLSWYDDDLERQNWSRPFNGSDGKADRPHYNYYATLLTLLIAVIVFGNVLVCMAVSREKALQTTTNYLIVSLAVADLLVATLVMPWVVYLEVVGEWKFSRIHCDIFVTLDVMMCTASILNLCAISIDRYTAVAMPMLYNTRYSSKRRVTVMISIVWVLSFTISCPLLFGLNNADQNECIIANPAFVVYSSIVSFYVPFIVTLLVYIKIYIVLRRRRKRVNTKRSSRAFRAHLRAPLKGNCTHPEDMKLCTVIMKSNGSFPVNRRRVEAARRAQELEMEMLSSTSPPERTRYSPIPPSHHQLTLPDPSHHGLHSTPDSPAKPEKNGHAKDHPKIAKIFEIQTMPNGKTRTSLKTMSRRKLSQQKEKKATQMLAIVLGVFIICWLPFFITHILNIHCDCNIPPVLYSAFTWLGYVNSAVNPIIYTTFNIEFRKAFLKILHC
Description: (§1) The membrane preparation was then aliquoted and stored at −70° C.

human D2L receptors [5] = target: T1, human D2L receptors; assay: Competitive binding assay at human D2L receptors using [3H]spiperone; conditions: CHO-K1 membranes, 0.16 nM [3H]spiperone
Description: CHO-K1 cells expressing human recombinant D2L receptors were washed with phosphate-buffered saline (PBS). Cells were scraped from the plates and centrifuged at 1000×g. Cells were disrupted using a Teflon® pestle homogenizer in buffer containing 25 mM Tris-HCl, pH=7.4, 6 mM MgCl2, 1 mM EDTA, 10 mM phenylmethylsulfonyl fluoride (PMSF). The resulting suspension was centrifuged at 1000×g. The supernatant was collected and centrifuged at 41,000×g. The supernatant was discarded, and the pellet was resuspended in above buffer. The membrane preparation was then aliquoted and stored at −70° C.
Non-specific binding (NSB) was determined in the presence of 10 μM haloperidol (Sigma-Aldrich). After incubation, samples were filtered over UniFilter® GF/C plates (PerkinElmer), washed and Microscint™-20 scintillation cocktail was added. Radioactivity was determined with a MicroBeta^2® microplate counter (PerkinElmer).
From scintillation counts, NSB was subtracted to yield specific binding which was normalized to vehicle-treated samples and converted to displacement % values. IC50 values were determined by a non-linear, least squares regression analysis using MathIQ™ (ID Business Solutions Ltd., Surrey, UK).

human D3 receptors [6] = target: T2, human D3 receptors (Homo sapiens (Human), UniProt P35462); assay: Competitive binding assay at human D3 receptors using [3H]raclopride; conditions: CHO-K1 membranes, ca. […] [3H]raclopride
T2 sequence (P35462 whole entry): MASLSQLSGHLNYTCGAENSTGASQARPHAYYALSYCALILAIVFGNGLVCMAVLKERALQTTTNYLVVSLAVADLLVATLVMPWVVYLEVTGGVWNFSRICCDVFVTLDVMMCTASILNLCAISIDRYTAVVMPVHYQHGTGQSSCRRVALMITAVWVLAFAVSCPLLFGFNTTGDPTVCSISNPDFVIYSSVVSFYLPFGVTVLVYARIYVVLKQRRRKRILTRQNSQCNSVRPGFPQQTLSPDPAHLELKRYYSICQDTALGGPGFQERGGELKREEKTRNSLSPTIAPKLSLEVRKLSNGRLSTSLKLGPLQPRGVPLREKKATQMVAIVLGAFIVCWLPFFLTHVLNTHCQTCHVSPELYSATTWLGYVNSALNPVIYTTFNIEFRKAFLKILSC
Description: as §1

human D3 receptors [7] = target: T2, human D3 receptors; assay: Competitive binding assay at human D3 receptors using [3H]spiperone; conditions: CHO-K1 membranes, 0.7 nM [3H]spiperone
Description: Cells were scraped from the plates and centrifuged at 1000×g. […] The supernatant was collected and centrifuged at 41,000×g. The supernatant was discarded, and the pellet was resuspended in above buffer.
IC50 values were determined by a non-linear, least squares regression analysis using MathIQ™ (ID Business Solutions Ltd., Surrey, UK).

Thermodynamic sol. [1] [µM] | Thermodynamic sol. [2] [µM] | 5-HT2A pKi (human 5-HT2A receptor) | D2L pKi [3H]raclopride (human D2L receptors [4]) | D2L pKi [3H]spiperone (human D2L receptors [5]) | D3 pKi [3H]raclopride (human D3 receptors [6]) | D3 pKi [3H] spiperone (human D3 receptors [7]) | SMILES | PCP (MED, mg/kg) [3] [mg/kg]
10.9 ± 0.3 | 45.3 ± 0.6 | 7.64 | – | – | – | – | CCOCN(C)C(=O)N[C@H]1CC[C@H](CCN2CCN(c3cccc(Cl)c3Cl)CC2)CC1 [Example 1, N′-[(1r,4r)-4-{2-[4-(2,3-dichlorophenyl)piperazin-1-yl]ethyl}cyclohexyl]-N-(ethoxymethyl)-N-methylurea] | 0.4
58.93 ± 5.32 | 50.93 ± 2.3 | 7.81 | 8.90 | 8.93 | 9.15 | 9.77 | COCN(C)C(=O)N[C@H]1CC[C@H](CCN2CCN(c3cccc(Cl)c3Cl)CC2)CC1 [Example 2, N′-[(1r,4r)-4-{2-[4-(2,3-dichlorophenyl)piperazin-1-yl]ethyl}cyclohexyl]-N-(methoxymethyl)-N-methylurea] | –

More lines, now with the values behind:

SMILES | Thermodynamic sol. [1] [µM] | Thermodynamic sol. [2] [µM] | 5-HT2A pKi (human 5-HT2A receptor) | D2L pKi [3H]raclopride (human D2L receptors [4]) | D2L pKi [3H]spiperone (human D2L receptors [5]) | D3 pKi [3H]raclopride (human D3 receptors [6]) | D3 pKi [3H] spiperone (human D3 receptors [7]) | PCP (MED, mg/kg) [3] [mg/kg]
CCCOCN(C)C(=O)N[C@H]1CC[C@H](CCN2CCN(c3cccc(Cl)c3Cl)CC2)CC1 [Example 3, N′-[(1r,4r)-4-{2-[4-(2,3-dichlorophenyl)piperazin-1-yl]ethyl}cyclohexyl]-N-methyl-N-(propoxymethyl)urea] | 30.50 ± 3.06 | 39.68 ± 2.15 | – | 8.94 | 8.93 | – | 9.74 | –
CCCN(C)C(=O)N[C@H]1CC[C@H](CCN2CCN(c3cccc(Cl)c3Cl)CC2)CC1 [Ref. Ex. 1, N-[(1r,4r)-4-{2-[4 (2,3-dichlorophenyl)piperazin-1-yl]ethyl}cyclohexyl]-N-methyl-N-propylurea, reference compound] | 4.9 ± 0.3 | 6.2 ± 0.3 | – | – | – | – | – | –
CN(C)C(=O)N[C@H]1CC[C@H](CCN2CCN(c3cccc(Cl)c3Cl)CC2)CC1 [Ref. Ex. 2, N′-[(1r,4r)-4-{2-[4-(2,3-dichlorophenyl)piperazin-1-yl]ethyl}cyclohexyl]-N,N-dimethylurea, reference compound] | – | – | – | – | – | – | – | 0.1
